In paper PMC9826262, “Discovery of Benzo[d]imidazole‐6‐sulfonamides as Bromodomain and Extra‐Terminal Domain (BET) Inhibitors with Selectivity for the First Bromodomain” (Chemmedchem, 2022):
Values after ≈ are worked out from the molar mass of the structure shown.

Assays:
[1] = CYPs and UGTs dual-activity microsomal stability; assay type: in vitro ADME; conditions: human liver microsomes; alamethicin, NADPH and UDPGA cofactors; 37 °C, 60 min
Procedure: In this study, the CYPs and UGTs “dual‐activity” microsomal stability assay was carried out to follow the loss of the test compounds over time under CYP‐ and UGT‐mediated metabolic pathways. In detail, the compounds were added to human liver microsomes in the presence of alamethicin, NADPH and UDPGA as cofactors.[24] Alamethicin, a pore‐forming peptide, was used to activate UGTs in human liver microsomes. Testosterone was used as positive control while the negative control was prepared by incubation of the compounds without cofactors up to 60 min. The negative control is essential to detect problems such as non‐specific protein binding or heat instability.
Instrumentation and chromatographic conditions. The metabolic stability of investigated compounds was monitored using a Nexera UHPLC system (Shimadzu, Kyoto, Japan) consisting of a CBM‐20A controller, two LC‐30AD pumps, an SPD‐M20A photo diode array detector, a CTO‐20AC column oven and, a SIL‐30AC autosampler. The chromatographic analyses were accomplished on a Kinetex® Evo C18 column, 150×2.1 mm×2.6 μm (Phenomenex®, Bologna, Italy) maintained at 40 °C. The optimal mobile phase consisted of 0.1 % HCOOH/H2O v/v (A) and 0.1 % HCOOH/ACN v/v (B) delivered at constant flow rate of 0.5 mL/min ^−1. Analysis was performed in gradient elution as follows: 0–8.00 min, 5–95 % B; 8.00–10.00 min, isocratic to 95 % B; then five minutes for column re‐equilibration. Data acquisition was set in the range 190–800 nm and chromatograms were monitored at 254 nm.
In vitro drug metabolism using human liver microsomes. 25 μL of 5 mg/mL human […] microsomes (Thermo Fisher Scientific, Bremen, Germany) were pre‐incubated with 0.625 μL of 100 μg/mL alamethicin. Then 2.5 μL of sample (5 mM) with 168 μL of 100 mM phosphate buffer (pH 7.4), 4 μL of 500 mM MgCl2 were added, the mixture was incubated at 37 °C for 5 min. Optimal UGT activity can be achieved by the addition of MgCl2 and alamethicin as pore forming antibiotic. These components allow for the efficient transfer of a glucuronide product and the cofactor uridine 5′‐diphospho‐α‐D‐glucuronic acid (UDPGA) within the microsomal matrix. The reaction has started by adding 50 μL of mix NADPH 20 mM and UDP‐GlcUA 20 mM as cofactors (1 : 1 v/v) and carried out 37 °C for 60 min in a Thermomixer comfort (Eppendorf, Hamburg, Germany). The reaction was stopped by the addition of 200 μL ice‐cold acetonitrile and then samples were centrifuged at 14,000 rpm at 25 °C for 5 min (Eppendorf® microcentrifuge 5424, Hamburg, Germany). The supernatants were collected and injected in UHPLC. The control at 0 min was obtained by addition of ice‐cold acetonitrile immediately after incubation with microsomes. […]

[2] = Nephelometric solubility determination; assay type: physicochemical; conditions: for solubility: aqueous buffer, kinetic from dmso stock, PBS with 1 % DMSO, tested at 50 and 100 μM, room temperature, read-out: Solubility (highest concentration where no precipitate was detected)
Procedure: Solubility determination. Solubility of the compounds was determined using Nepheloskan Ascent® (Labsystems). The experiments were performed at room temperature in 96‐well plates in a final volume of 300 μL. Each compound was tested in quadruplicate at the concentrations of 50 and 100 μM in PBS with 1 % DMSO. The measurements were performed at 4 different time points (T0, 30 min, 60 min, 90 min) from the preparation of the samples. Data obtained were compared to control (PBS with 1 % DMSO) and the ratio sample/control was determined for each compound. Compounds are considered soluble if the ratio is≤3.

in vitro = conditions: PAMPA, pH 7.4
Procedure: Membrane permeability was estimated by the well‐validated parallel artificial membrane permeability assay (PAMPA) technique.[17, 26]
Parallel Artificial Membrane Permeability Assay (PAMPA). Donor solution (0.2 mM) was prepared by diluting 20 mM dimethyl sulfoxide (DMSO) compound stock solution using phosphate buffer (pH 7.4, 0.01 M). Filters were coated with 5 μL of a 1 % (w/v) dodecane solution of L‐α‐phosphatidylcholine. Donor solution (150 μL) was added to each well of the filter plate. To each well of the acceptor plate, 300 μL of solution (5 % DMSO in phosphate buffer) was added. […] The sandwich was incubated for 24 h at room temperature under gentle shaking. After the incubation time, the sandwich plates were separated and 250 μL of the acceptor plate was transferred to a UV quartz microtiter plate and measured by UV spectroscopy, using a Multiskan GO microplate spectrophotometer (Thermo Fisher Scientific) at 250–500 nm at a step of 5 nm. Reference solutions (250 μL) were prepared diluting the sample stock solutions to the same concentration as that with no membrane barrier.
In this equation, VR is the volume of the acceptor compartment (0.3 cm^3), VD is the donor volume (0.15 cm^3), A is the accessible filter area (0.24 cm^2), and t is the incubation time in seconds.

[3] = test system: BD1 and BD2 of BET proteins (BRD2, BRD3, BRD4 and BRDT); assay: Protein stability shift assay (ΔTm), BET bromodomains; assay type: binding; conditions: compound 10 μM; protein 2 μM
Procedure: (§1) The compounds were tested at 10 μM fixed dose and the pan‐BET inhibitor 1 was used as a reference compound.[22] The results obtained from this screening supported our design strategy.
(§2) Protein stability shift assay. Thermal melting experiments were carried out using an Mx3005p Real Time PCR machine (Stratagene). Proteins were buffered in 10 mM HEPES pH 7.5, 500 mM NaCl and assayed in a 96‐well plate at a final concentration of 2 μM in 20 μL volume. Compounds were added at a final concentration of 10 μM. SYPRO Orange (Molecular Probes) was added as a fluorescence probe at a dilution of 1 : 1000. Excitation and emission filters for the SYPRO‐Orange dye were set to 465 nm and 590 nm, respectively. The temperature was raised with a step of 3 °C per minute from 25 °C to 96 °C and fluorescence readings were taken at each interval. The temperature dependence of the fluorescence during the protein denaturation process was approximated by the equation yT=yF+yU-yF/1+e^ΔuGT/RT
(§3) where ΔuG(T) is the difference in unfolding free energy between the folded and unfolded state, R is the gas constant and yF and yU are the fluorescence intensity of the probe in the presence of completely folded and unfolded protein, respectively. The baselines of the denatured and native states were approximated by a linear fit. The observed temperature shifts, ΔTm obs, were recorded as the difference between the transition midpoints of sample and reference wells containing protein without ligand in the same plate and determined by non‐linear least squares fit.

[4] = test system: non‐BET bromodomain‐containing proteins (CREBBP, PB1 and PCAF); assay: Protein stability shift assay (ΔTm), non-BET bromodomains; assay type: binding; conditions: compound 10 μM; protein 2 μM
Procedure: as §1, §2, §3

BD1 of BRD4 = test system: BD1 of BRD4; set-up: method as in earlier work; conditions: ref 19b; cited from earlier work
BD1 (BRD3 and BRD4) = conditions: cited from earlier work

| Structure (SMILES) | ΔTm screening against BET bromodomains [3] | further results |
| --- | --- | --- |
| Cc1cc(/N=N/c2ccc(S(=O)(=O)Nc3ccccn3)cc2)c(N)cc1O [7 a, MS436, reference compound] | – | CYPs and UGTs “dual‐activity” microsomal stability (percentage of the parent compound turnover) [1]: 7.8±0.5%; Solubility at 100 μM ([2]; 100 μM, aqueous solution with 1 % DMSO): still soluble; solubility [2]: 100 µM (≈ 38.3 µg/mL); Papp at 24 h, 0.2 mM (in vitro): 0.0103 ×10⁻⁶ cm/s |
| Cc1cc(-c2nc3ccc(S(=O)(=O)Nc4ccc(C#N)cc4)cc3[nH]2)cc(C)c1O [9 b, N ‐(4‐cyanophenyl)‐2‐(4‐hydroxy‐3,5‐dimethylphenyl)‐1H‐benzo[d]imidazole‐6‐sulfonamide] | increase in the melting temperature of all BET proteins | CYPs and UGTs “dual‐activity” microsomal stability (percentage of the parent compound turnover) [1]: 16.3±0.5%; solubility [2]: 50 µM (≈ 20.9 µg/mL); Papp at 24 h, 0.2 mM (in vitro): 0.0909 ×10⁻⁶ cm/s |
| Cc1cc(-c2nc3ccc(S(N)(=O)=O)cc3[nH]2)cc(C)c1O [9 c, 2‐(4‐hydroxy‐3,5‐dimethylphenyl)‐1H‐benzo[d]imidazole‐6‐sulfonamide] | definitely lower affinity than 9 a and 9 b | – |
| CNS(=O)(=O)c1ccc2nc(-c3cc(C)c(O)c(C)c3)[nH]c2c1 [9 d, 2‐(4‐hydroxy‐3,5‐dimethylphenyl)‐N‐methyl‐1H‐benzo[d]imidazole‐6‐sulfonamide] | definitely lower affinity than 9 a and 9 b | – |
| Cc1cc(-c2nc3ccc(S(=O)(=O)NCc4ccccn4)cc3[nH]2)cc(C)c1O [9 e, 2‐(4‐hydroxy‐3,5‐dimethylphenyl)‐N‐(pyridin‐2‐ylmethyl)‐1H‐benzo[d]imidazole‐6‐sulfonamide] | complete loss of activity | – |
| Cc1cc(-c2nc3ccc(S(=O)(=O)NCc4cccnc4)cc3[nH]2)cc(C)c1O [9 f, 2‐(4‐hydroxy‐3,5‐dimethylphenyl)‐N‐(pyridin‐3‐ylmethyl)‐1H‐benzo[d]imidazole‐6‐sulfonamide] | complete loss of activity | – |
| Cc1cc(-c2nc3ccc(S(=O)(=O)NC4CC4)cc3[nH]2)cc(C)c1O [9 g, N ‐cyclopropyl‐2‐(4‐hydroxy‐3,5‐dimethylphenyl)‐1H‐benzo[d]imidazole‐6‐sulfonamide] | partial loss of affinity toward BETs | ΔTm screening, off-target binding (BD2 of BRDT and non-BET bromodomains) [4]: strong off‐target binding |
| Cc1cc(-c2nc3ccc(S(=O)(=O)NC4CCCC4)cc3[nH]2)cc(C)c1O [9 h, N ‐cyclopentyl‐2‐(4‐hydroxy‐3,5‐dimethylphenyl)‐1H‐benzo[d]imidazole‐6‐sulfonamide] | affinity toward BETs similar to 9 a and 9 b | ΔTm screening, off-target binding (BD2 of BRDT and non-BET bromodomains) [4]: strong binding to BD2 of BRDT and other non‐BET bromodomain‐containing proteins |
| Cc1cc(-c2nc3ccc(S(=O)(=O)NC4CCCCC4)cc3[nH]2)cc(C)c1O [9 i, N ‐cyclohexyl‐2‐(4‐hydroxy‐3,5‐dimethylphenyl)‐1H‐benzo[d]imidazole‐6‐sulfonamide] | affinity toward BETs similar to 9 a and 9 b | ΔTm screening, off-target binding (BD2 of BRDT and non-BET bromodomains) [4]: strong binding to BD2 of BRDT and other non‐BET bromodomain‐containing proteins |
| Cc1cc(-c2nc3ccc(S(=O)(=O)Nc4ccccn4)cc3[nH]2)ccc1O [9 j, 2‐(4‐hydroxy‐3‐methylphenyl)‐N‐(pyridin‐2‐yl)‐1H‐benzo[d]imidazole‐6‐sulfonamide] | marked loss of activity | – |
| Cc1cc(O)cc(C)c1-c1nc2ccc(S(=O)(=O)Nc3ccccn3)cc2[nH]1 [9 k, 2‐(4‐hydroxy‐2,6‐dimethylphenyl)‐N‐(pyridin‐2‐yl)‐1H‐benzo[d]imidazole‐6‐sulfonamide] | marked loss of activity | – |
| O=S(=O)(Nc1ccccn1)c1ccc2nc(-c3ccc(O)cc3)[nH]c2c1 [9 l, 2‐(4‐hydroxyphenyl)‐N‐(pyridin‐2‐yl)‐1H‐benzo[d]imidazole‐6‐sulfonamide] | still active but significantly less selective | – |
| O=S(=O)(Nc1ccccn1)c1ccc2nc(-c3cccc(O)c3)[nH]c2c1 [9 m, 2‐(3‐hydroxyphenyl)‐N‐(pyridin‐2‐yl)‐1H‐benzo[d]imidazole‐6‐sulfonamide] | almost completely inactive | – |
| O=S(=O)(Nc1ccccn1)c1ccc2nc(-c3ccc(Cl)cc3)[nH]c2c1 [9 n, 2‐(4‐chlorophenyl)‐N‐(pyridin‐2‐yl)‐1H‐benzo[d]imidazole‐6‐sulfonamide] | almost completely inactive | – |
| O=S(=O)(Nc1ccccn1)c1ccc2nc(-c3ccc(O)c(O)c3)[nH]c2c1 [9 o, 2‐(3,4‐dihydroxyphenyl)‐N‐(pyridin‐2‐yl)‐1H‐benzo[d]imidazole‐6‐sulfonamide] | not tolerated | – |
| O=S(=O)(Nc1ccccn1)c1ccc2nc(-c3ccc(O)cc3O)[nH]c2c1 [9 p, 2‐(2,4‐dihydroxyphenyl)‐N‐(pyridin‐2‐yl)‐1H‐benzo[d]imidazole‐6‐sulfonamide] | active but non‐selective | – |
| COCC(COC)n1c(-c2cc(C)c(=O)n(C)c2)nc2cc(N3CCOCC3)ccc21 [Compound 8, I‐BET469] | – | Selectivity for BD1 over BD2 of BRD2, BRD3 and BRD4 (BD1 of BRD4): 20 fold; pIC50 on BD1 of BRD4 (BD1 of BRD4): 7.9 |
| COc1ccccc1S(=O)(=O)Nc1ccc2c3c(cc(-n4cnc(C)c4)nc13)C(=O)N2C [LT052] | – | IC50 (BD1 (BRD3 and BRD4); read-out: IC50 towards BD1): 87.7 nM; Selectivity for BD1 over BD2 (BD1 (BRD3 and BRD4); tested against BRD3 and BRD4): over 100 fold |
| CC(C)NCC(O)COc1cccc2ccccc12 (stereo not drawn) [propranolol] | – | Papp at 24 h, 0.2 mM (in vitro): 1.91 ×10⁻⁶ cm/s |
